From patent publication US20260207711A1, “FORMULATIONS, DEVICES AND METHODS FOR A GLP-1 AGONIST” (Nano Precision Medical, Inc., priority 2023, published 2026)

Test: Stability of the formulation remaining in terminated devices (purity, remaining concentration, mass balance by HPLC)
Type: physicochemical
Conditions: over 77 days; starting purity of semaglutide as received 94%
From the text: Each trace in the figure represents a separate measurement of a separate vial. At the end of the time period devices were terminated, disassembled and the internal compositions measured.
The mass balance numbers indicate that no appreciable amount of drug was lost in the form of degradants undetectable by HPLC, such a fibrils.
[…] Purities were […].

Substance: semaglutide
- total loss in purity: 7-8%
